Target: T1, KMO mouse enzyme (Mus musculus, UniProt Q91WN4)
T1 construct: KMO enzyme prepared at Evotec from mouse liver (4-6 weeks old) via mitochondria isolation; from tissue; host or cells: mouse liver (4-6 weeks old), mitochondria isolation
Experiment: Mouse KMO enzyme assay: L-kynurenine hydroxylation to 3OH-KYN by LC/MS
Assay type: biochemical
Conditions: compound at 10 μM; KMO from mouse liver mitochondria; read-out: INH.Mouse @ 10 μM
Experimental: Product is quantified by multiple reaction monitoring (MRM method).
IC50's are calculated using automated fitting algorithm (A+Analysis).

T1 sequence (Q91WN4 whole entry): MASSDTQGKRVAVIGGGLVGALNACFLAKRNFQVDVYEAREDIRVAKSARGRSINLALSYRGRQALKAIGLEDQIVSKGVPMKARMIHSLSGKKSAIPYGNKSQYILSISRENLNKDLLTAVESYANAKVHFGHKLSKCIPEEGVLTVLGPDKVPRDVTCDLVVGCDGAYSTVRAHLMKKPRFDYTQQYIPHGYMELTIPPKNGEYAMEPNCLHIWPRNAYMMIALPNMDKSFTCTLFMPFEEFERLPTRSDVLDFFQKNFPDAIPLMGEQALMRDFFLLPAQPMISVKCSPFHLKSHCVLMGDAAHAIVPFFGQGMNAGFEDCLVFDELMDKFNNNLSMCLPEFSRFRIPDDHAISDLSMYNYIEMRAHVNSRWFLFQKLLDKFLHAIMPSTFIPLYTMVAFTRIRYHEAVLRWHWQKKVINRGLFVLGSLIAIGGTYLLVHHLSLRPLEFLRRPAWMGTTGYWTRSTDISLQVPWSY

Compound | inhibition at 10 µM [%]
Clc1cccc(-c2cc(-c3nc4ccccc4o3)ncn2)c1 [2-[6-(3-chlorophenyl)pyrimidin-4-yl]-1,3-benzoxazole] | 54.4
Cc1ccc(-c2cc(-c3noc(=O)[nH]3)ncn2)cc1F [3-[6-(3-Fluoro-4-methyl-phenyl)-pyrimidin-4-yl]-4H-[1,2,4]oxadiazol-5-one] | 100
O=c1[nH]c(-c2cc(-c3cccc(Cl)c3)ncn2)no1 [3-[6-(3-chlorophenyl)pyrimidin-4-yl]-4H-1,2,4-oxadiazol-5-one] | 96.3
O=c1[nH]c(-c2cc(-c3cncc(Cl)c3)ncn2)no1 [3-[6-(5-chloropyridin-3-yl)pyrimidin-4-yl]-4H-1,2,4-oxadiazol-5-one] | 65.2
Cc1coc(-c2cc(-c3ccc(Cl)c(Cl)c3)nc(C)n2)n1 [4-(3,4-dichlorophenyl)-2-methyl-6-(4-methyl-1,3-oxazol-2-yl)pyrimidine] | 46.8
Cc1coc(-c2cc(-c3ccc(Cl)c(Cl)c3)ncn2)n1 [4-(3,4-dichlorophenyl)-6-(4-methyl-1,3-oxazol-2-yl)pyrimidine] | 101
Cc1c[nH]c(-c2cc(-c3ccc(Cl)c(Cl)c3)ncn2)n1 [4-(3,4-dichlorophenyl)-6-(4-methyl-1H-imidazol-2-yl)pyrimidine] | 92.3
Cc1nc(-c2cc(-c3ccc(Cl)c(Cl)c3)ncn2)no1 [4-(3,4-dichlorophenyl)-6-(5-methyl-1,2,4-oxadiazol-3-yl)pyrimidine] | 51
FC(F)(F)c1ccn(-c2cc(-c3ccc(Cl)c(Cl)c3)ncn2)n1 [4-(3,4-dichlorophenyl)-6-[3-(trifluoromethyl)pyrazol-1-yl]pyrimidine] | 56.7
FC(F)(F)c1cn(-c2cc(-c3ccc(Cl)c(Cl)c3)ncn2)cn1 [4-(3,4-dichlorophenyl)-6-[4-(trifluoromethyl)imidazol-1-yl]pyrimidine] | 64.4
Fc1ccc(-c2cc(-c3nnn[nH]3)ncn2)cc1F [4-(3,4-difluorophenyl)-6-(1H-tetrazol-5-yl)pyrimidine] | 101
Cc1ccc(-c2cc(-c3nnn[nH]3)ncn2)cc1F [4-(3-Fluoro-4-methyl-phenyl)-6-(1H-tetrazol-5-yl)-pyrimidine] | 100
Fc1ccc(-c2cc(-c3nnn[nH]3)ncn2)cc1Cl [4-(3-chloro-4-fluorophenyl)-6-(1H-tetrazol-5-yl)pyrimidine] | 103
Cn1nnnc1-c1cc(-c2cccc(Cl)c2)ncn1 [4-(3-chlorophenyl)-6-(1-methyltetrazol-5-yl)pyrimidine] | 65.6
Cn1nnc(-c2cc(-c3cccc(Cl)c3)ncn2)n1 [4-(3-chlorophenyl)-6-(2-methyltetrazol-5-yl)pyrimidine] | 91.2
Cc1noc(-c2cc(-c3cccc(Cl)c3)ncn2)n1 [4-(3-chlorophenyl)-6-(3-methyl-1,2,4-oxadiazol-5-yl)pyrimidine] | 91
Clc1cccc(-c2cc(-c3nnc[nH]3)ncn2)c1 [4-(3-chlorophenyl)-6-(4H-1,2,4-triazol-3-yl)pyrimidine] | 102
O=c1[nH]cc(-c2cc(-c3ccc(Cl)c(Cl)c3)ncn2)[nH]1 [4-[6-(3,4-dichlorophenyl)pyrimidin-4-yl]-1,3-dihydroimidazol-2-one] | 105
O=c1[nH]nc(-c2cc(-c3ccc(Cl)c(Cl)c3)ncn2)[nH]1 [5-[6-(3,4-dichlorophenyl)pyrimidin-4-yl]-2,4-dihydro-1,2,4-triazol-3-one] | 58.1

More lines, now with the values ahead:

inhibition at 10 µM [%] | Compound
49.7 | Clc1ccc(-c2cc(-c3nc4ccccc4[nH]3)ncn2)cc1Cl [2-[6-(3,4-dichlorophenyl)pyrimidin-4-yl]-1H-benzimidazole]
102 | Clc1cccc(-c2cc(-c3nc4ccccc4[nH]3)ncn2)c1 [2-[6-(3-chlorophenyl)pyrimidin-4-yl]-1H-benzimidazole]
100 | O=c1[nH]c(-c2cc(-c3ccc(F)c(F)c3)ncn2)no1 [3-[6-(3,4-Difluoro-phenyl)-pyrimidin-4-yl]-4H-[1,2,4]oxadiazol-5-one]
102 | S=c1[nH]c(-c2cc(-c3ccc(Cl)c(Cl)c3)ncn2)no1 [3-[6-(3,4-dichlorophenyl)pyrimidin-4-yl]-4H-1,2,4-oxadiazole-5-thione]
100 | O=c1[nH]c(-c2cc(-c3ccc(F)c(Cl)c3)ncn2)no1 [3-[6-(3-Chloro-4-fluoro-phenyl)-pyrimidin-4-yl]-4H-[1,2,4]oxadiazol-5-one]
96 | CC(C)Oc1ccc(-c2cc(-c3noc(=O)[nH]3)ncn2)cc1Cl [3-[6-(3-Chloro-4-isopropoxy-phenyl)-pyrimidin-4-yl]-4H-[1,2,4]oxadiazol-5-one]
98 | Cc1ccc(-c2cc(-c3noc(=O)[nH]3)ncn2)cc1Cl [3-[6-(3-Chloro-4-methyl-phenyl)-pyrimidin-4-yl]-4H-[1,2,4]oxadiazol-5-one]
99 | O=c1[nH]c(-c2cc(-c3ccc(OC(F)(F)F)c(Cl)c3)ncn2)no1 [3-[6-(3-Chloro-4-trifluoromethoxy-phenyl)-pyrimidin-4-yl]-4H-[1,2,4]oxadiazol-5-one]
19 | Clc1ccc(-c2cc(-c3cc[nH]n3)ncn2)cc1Cl [4-(3,4-Dichloro-phenyl)-6-(1H-pyrazol-3-yl)-pyrimidine]
93 | Clc1ccc(-c2cc(-c3ncco3)ncn2)cc1Cl [4-(3,4-Dichloro-phenyl)-6-oxazol-2-yl-pyrimidine]
48 | Clc1ccc(-c2cc(-c3nccs3)ncn2)cc1Cl [4-(3,4-Dichloro-phenyl)-6-thiazol-2-yl-pyrimidine]
99 | Clc1ccc(-c2cc(-c3ncc[nH]3)ncn2)cc1Cl [4-(3,4-dichlorophenyl)-6-(1H-imidazol-2-yl)pyrimidine]
95.5 | Clc1ccc(-c2cc(C3=NCCN3)ncn2)cc1Cl [4-(3,4-dichlorophenyl)-6-(4,5-dihydro-1H-imidazol-2-yl)pyrimidine]
100 | Clc1ccc(-c2cc(-c3nnc[nH]3)ncn2)cc1Cl [4-(3,4-dichlorophenyl)-6-(4H-1,2,4-triazol-3-yl)pyrimidine]
80 | Cc1nnc(-c2cc(-c3ccc(Cl)c(Cl)c3)ncn2)[nH]1 [4-(3,4-dichlorophenyl)-6-(5-methyl-4H-1,2,4-triazol-3-yl)pyrimidine]
87 | FC(F)(F)c1nc(-c2cc(-c3ccc(Cl)c(Cl)c3)ncn2)no1 [4-(3,4-dichlorophenyl)-6-[5-(trifluoromethyl)-1,2,4-oxadiazol-3-yl]pyrimidine]
100 | CC(C)Oc1ccc(-c2cc(-c3nnn[nH]3)ncn2)cc1Cl [4-(3-Chloro-4-isopropoxy-phenyl)-6-(1H-tetrazol-5-yl)-pyrimidine]
100 | FC(F)(F)Oc1ccc(-c2cc(-c3nnn[nH]3)ncn2)cc1Cl [4-(3-Chloro-4-trifluoromethoxy-phenyl)-6-(1H-tetrazol-5-yl)-pyrimidine]
103 | Clc1cccc(-c2cc(-c3nnn[nH]3)ncn2)c1 [4-(3-chlorophenyl)-6-(1H-tetrazol-5-yl)pyrimidine]
101 | Cc1coc(-c2cc(-c3cccc(Cl)c3)ncn2)n1 [4-(3-chlorophenyl)-6-(4-methyl-1,3-oxazol-2-yl)pyrimidine]
73.6 | Cn1[nH]cc(-c2cc(-c3ccc(Cl)c(Cl)c3)ncn2)c1=O [4-[6-(3,4-dichlorophenyl)pyrimidin-4-yl]-2-methyl-1H-pyrazol-3-one]
39.1 | CNC(=O)c1ccc(-c2cc(-c3ccc(Cl)c(Cl)c3)ncn2)nc1 [6-[6-(3,4-dichlorophenyl)pyrimidin-4-yl]-N-methylpyridine-3-carboxamide]
39.1 | Clc1cccc(-c2cc(-c3nc4ccc(Cl)cc4[nH]3)ncn2)c1 [6-chloro-2-[6-(3-chlorophenyl)pyrimidin-4-yl]-1H-benzimidazole]

Test system: not listed separately
Experiment: Solubility remark made when LCMS was attempted
Assay type: physicochemical
Conditions: solvents for LCMS

Compound | solubility
Cn1[nH]cc(-c2cc(-c3ccc(Cl)c(Cl)c3)ncn2)c1=O [4-[6-(3,4-dichlorophenyl)pyrimidin-4-yl]-2-methyl-1H-pyrazol-3-one] | Compound is insuffciently souble in any acceptable solvent in order to obtain a meaningful LCMS 1H NMR (500 MHz, DMSO-d6) d ppm 8.88 (1H, s), 8.44 (1H, br.s.), 8.26 (1H, br.s.), 8.19 (1H, d), 8.06 (1H, br.s.), 7.85 (1H, d), 3.45 (3H, s)
O=c1[nH]nc(-c2cc(-c3ccc(Cl)c(Cl)c3)ncn2)[nH]1 [5-[6-(3,4-dichlorophenyl)pyrimidin-4-yl]-2,4-dihydro-1,2,4-triazol-3-one] | very unsoluble compound- LCMS unobtainable 1H NMR (250 MHz, DMSO-d6) d ppm 9.27-9.32 (1 H, m), 8.39- 8.47 (2 H, m), 8.17-8.25 (1 H, m), 7.76-7.85 (1 H, m)
